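Where inhibition never reached the appropriate level, the endpoint shown equals the highest concentration tested. Otherwise, values were interpolated linearly from a five-concentration, 48-hour dose response in 96-well plates. GI50 is the concentration that inhibits growth by half.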 Activity calls are given as the source filed them. No stated cut-off is given here; in the data, active = GI50 up to about 1.1 µM and inactive = higher.
How the values were obtained:
Test in all cases: growth of human tumour cells (NCI), 48 h
OVCAR-8 = tested on: OVCAR-8
HCC 2998 = tested on: HCC 2998
COLO 205 = tested on: COLO 205
786-0 = tested on: 786-0
CAKI-1 = tested on: CAKI-1
NCI-H226 = tested on: NCI-H226
EKVX = tested on: EKVX
BT-549 = tested on: BT-549
IGROV-1 = tested on: IGROV-1
M14 = tested on: M14
SW-620 = tested on: SW-620
NCI-H522 = tested on: NCI-H522
SF-268 = tested on: SF-268
PC-3 = tested on: PC-3
Malme-3M = tested on: Malme-3M
OVCAR-5 = tested on: OVCAR-5
KM12 = tested on: KM12
UACC-257 = tested on: UACC-257
MDA-N = tested on: MDA-N
SK-MEL-2 = tested on: SK-MEL-2
OVCAR-4 = tested on: OVCAR-4
U-251 = tested on: U-251
LOX IMVI = tested on: LOX IMVI
TK-10 = tested on: TK-10
UACC-62 = tested on: UACC-62
NCI/ADR-RES = tested on: NCI/ADR-RES
K562 = tested on: K562
MDA-MB-231 = tested on: MDA-MB-231
RPMI-8226 = tested on: RPMI-8226
HOP-62 = tested on: HOP-62
ACHN = tested on: ACHN
SF-539 = tested on: SF-539
MOLT-4 = tested on: MOLT-4
A549 = tested on: A549
HOP-92 = tested on: HOP-92
SK-MEL-28 = tested on: SK-MEL-28
SNB-75 = tested on: SNB-75
HCT-15 = tested on: HCT-15
MDA-MB-435 = tested on: MDA-MB-435
HCT-116 = tested on: HCT-116
SK-OV-3 = tested on: SK-OV-3
MCF7 = tested on: MCF7
SF-295 = tested on: SF-295
Hs-578T = tested on: Hs-578T
HL-60 = tested on: HL-60
CCRF-CEM = tested on: CCRF-CEM
SK-MEL-5 = tested on: SK-MEL-5
SN12C = tested on: SN12C
SNB-19 = tested on: SNB-19
NCI-H460 = tested on: NCI-H460
RXF 393 = tested on: RXF 393
A498 = tested on: A498
HT-29 = tested on: HT-29
OVCAR-3 = tested on: OVCAR-3
UO-31 = tested on: UO-31
DU-145 = tested on: DU-145
NCI-H23 = tested on: NCI-H23
SR = tested on: SR

Measured: GI50

N#Cc1c(-c2ccccc2)c(C#N)c(=O)n(NS(=O)(=O)c2ccccc2)c1O
inactive: OVCAR-8 > 100 µM | HCC 2998 > 100 µM | COLO 205 > 100 µM | 786-0 > 100 µM | CAKI-1 > 100 µM | NCI-H226 > 100 µM | EKVX > 100 µM | BT-549 > 100 µM | IGROV-1 > 100 µM | M14 > 100 µM | SW-620 > 100 µM | NCI-H522 > 100 µM | SF-268 > 100 µM | PC-3 > 100 µM | Malme-3M > 100 µM | OVCAR-5 > 100 µM | KM12 > 100 µM | UACC-257 > 100 µM | MDA-N > 100 µM | SK-MEL-2 > 100 µM | OVCAR-4 > 100 µM | U-251 > 100 µM | LOX IMVI > 100 µM | TK-10 > 100 µM | UACC-62 > 100 µM | NCI/ADR-RES > 100 µM | K562 > 100 µM | MDA-MB-231 > 100 µM | RPMI-8226 > 100 µM | HOP-62 > 100 µM | ACHN > 100 µM | SF-539 > 100 µM | MOLT-4 > 100 µM | A549 > 100 µM | HOP-92 > 100 µM | SK-MEL-28 > 100 µM | SNB-75 > 100 µM | MDA-MB-435 > 100 µM | HCT-116 > 100 µM | SK-OV-3 > 100 µM | MCF7 > 100 µM | SF-295 > 100 µM | Hs-578T > 100 µM | HL-60 > 100 µM | CCRF-CEM > 100 µM | SK-MEL-5 > 100 µM | SN12C > 100 µM | SNB-19 > 100 µM | NCI-H460 > 100 µM | RXF 393 > 100 µM | A498 > 100 µM | HT-29 > 100 µM
> 100 µM: HCT-15

CC1=NN(c2nc(N)nc(C/C(N)=N/O)n2)C(C)(C)C1
inactive: OVCAR-8 > 100 µM | HCC 2998 > 100 µM | OVCAR-3 > 100 µM | COLO 205 > 100 µM | 786-0 > 100 µM | UO-31 > 100 µM | CAKI-1 > 100 µM | NCI-H226 > 100 µM | EKVX > 100 µM | DU-145 > 100 µM | BT-549 > 100 µM | IGROV-1 > 100 µM | M14 > 100 µM | SW-620 > 100 µM | NCI-H522 > 100 µM | SF-268 > 100 µM | Malme-3M > 100 µM | OVCAR-5 > 100 µM | KM12 > 100 µM | UACC-257 > 100 µM | OVCAR-4 > 100 µM | U-251 > 100 µM | LOX IMVI > 100 µM | TK-10 > 100 µM | UACC-62 > 100 µM | NCI/ADR-RES > 100 µM | K562 > 100 µM | MDA-MB-231 > 100 µM | RPMI-8226 > 100 µM | HOP-62 > 100 µM | ACHN > 100 µM | SF-539 > 100 µM | MOLT-4 > 100 µM | A549 > 100 µM | HOP-92 > 100 µM | SK-MEL-28 > 100 µM | SNB-75 > 100 µM | NCI-H23 > 100 µM | MDA-MB-435 > 100 µM | HCT-116 > 100 µM | SK-OV-3 > 100 µM | MCF7 > 100 µM | SF-295 > 100 µM | Hs-578T > 100 µM | HL-60 > 100 µM | CCRF-CEM > 100 µM | SK-MEL-5 > 100 µM | SN12C > 100 µM | SNB-19 > 100 µM | NCI-H460 > 100 µM | A498 > 100 µM | HT-29 > 100 µM
> 100 µM: HCT-15

CCOC(=O)c1ccc(/N=C2\S/C(=C\C(=S)Nc3ccccc3)N(c3ccccc3)\C2=N/c2ccc(C(=O)OCC)cc2)cc1
> 100 µM: HCT-15
inactive: OVCAR-8 > 100 µM | HCC 2998 > 100 µM | SR > 100 µM | COLO 205 > 100 µM | 786-0 82 µM | UO-31 > 100 µM | NCI-H226 > 100 µM | EKVX > 100 µM | BT-549 62.7 µM | IGROV-1 > 100 µM | M14 34.6 µM | SW-620 > 100 µM | PC-3 > 100 µM | Malme-3M 21.6 µM | KM12 > 100 µM | UACC-257 94.2 µM | SK-MEL-2 > 100 µM | TK-10 > 100 µM | UACC-62 > 100 µM | K562 > 100 µM | MDA-MB-231 > 100 µM | RPMI-8226 > 100 µM | HOP-62 > 100 µM | MOLT-4 > 100 µM | A549 > 100 µM | HOP-92 22.8 µM | SK-MEL-28 95.5 µM | SNB-75 34.5 µM | NCI-H23 > 100 µM | HCT-116 27.2 µM | MCF7 > 100 µM | Hs-578T 62.4 µM | HL-60 > 100 µM | CCRF-CEM > 100 µM | SK-MEL-5 40.7 µM | SN12C > 100 µM | SNB-19 > 100 µM | RXF 393 81.5 µM | HT-29 > 100 µM

CC1(C)/C(=N\O)C2(C#N)CCC1C2 (configuration not stated)
inactive: OVCAR-8 > 100 µM | HCC 2998 > 100 µM | SR > 100 µM | UO-31 > 100 µM | CAKI-1 > 100 µM | NCI-H226 > 100 µM | BT-549 > 100 µM | SW-620 > 100 µM | SF-268 > 100 µM | KM12 > 100 µM | UACC-257 > 100 µM | MDA-N > 100 µM | OVCAR-4 > 100 µM | U-251 > 100 µM | TK-10 > 100 µM | UACC-62 > 100 µM | NCI/ADR-RES > 100 µM | K562 > 100 µM | MDA-MB-231 > 100 µM | RPMI-8226 > 100 µM | ACHN > 100 µM | MOLT-4 > 100 µM | HOP-92 > 100 µM | SK-MEL-28 > 100 µM | SNB-75 > 100 µM | NCI-H23 > 100 µM | MDA-MB-435 > 100 µM | HL-60 > 100 µM | CCRF-CEM > 100 µM | SN12C > 100 µM | SNB-19 > 100 µM | NCI-H460 > 100 µM | A498 > 100 µM
> 100 µM: HCT-15

Cc1cc(NS(=O)(=O)c2ccc(/N=N/c3c(O)c(C(=O)O)cc4ccccc34)cc2)nc(C)n1
inactive: OVCAR-8 > 100 µM | HCC 2998 > 100 µM | SR > 100 µM | OVCAR-3 > 100 µM | COLO 205 > 100 µM | 786-0 > 100 µM | UO-31 > 100 µM | CAKI-1 > 100 µM | NCI-H226 > 100 µM | EKVX > 100 µM | BT-549 > 100 µM | IGROV-1 > 100 µM | M14 > 100 µM | SW-620 > 100 µM | NCI-H522 > 100 µM | SF-268 > 100 µM | PC-3 > 100 µM | Malme-3M > 100 µM | OVCAR-5 > 100 µM | KM12 > 100 µM | UACC-257 > 100 µM | SK-MEL-2 > 100 µM | OVCAR-4 > 100 µM | U-251 > 100 µM | TK-10 > 100 µM | UACC-62 > 100 µM | NCI/ADR-RES > 100 µM | K562 > 100 µM | MDA-MB-231 > 100 µM | RPMI-8226 > 100 µM | HOP-62 > 100 µM | ACHN > 100 µM | SF-539 > 100 µM | MOLT-4 > 100 µM | A549 > 100 µM | HOP-92 > 100 µM | SK-MEL-28 > 100 µM | SNB-75 > 100 µM | MDA-MB-435 > 100 µM | HCT-116 > 100 µM | SK-OV-3 > 100 µM | MCF7 > 100 µM | SF-295 > 100 µM | Hs-578T > 100 µM | HL-60 > 100 µM | CCRF-CEM > 100 µM | SK-MEL-5 > 100 µM | SNB-19 > 100 µM | NCI-H460 > 100 µM | RXF 393 > 100 µM | HT-29 > 100 µM
> 100 µM: HCT-15
